PubChem BioAssay (NCI)
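Tested at 5 concentrations; 48 h exposure; 96-well plates; endpoints linearly interpolated, else capped at highest concentration. At the GI50, growth is halved. TGI marks complete inhibition of growth.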

Legend:
Assay in all cases: growth of human tumour cells (NCI), 48 h
[1] = tested on: NCI-H23 lung
[2] = tested on: SF-295 CNS
[3] = tested on: SNB-19 CNS
[4] = tested on: NCI-H460 lung
[5] = tested on: HCT-15 colon
[6] = tested on: HT29 colon
[7] = tested on: K-562 leukemia
[8] = tested on: SK-MEL-28 melanoma
[9] = tested on: SK-OV-3 ovarian
[10] = tested on: SN12C renal

| Structure (SMILES) | TGI [1] [µM] | TGI [2] [µM] | TGI [3] [µM] | TGI [4] [µM] | TGI [5] [µM] | TGI [6] [µM] | TGI [7] [µM] | TGI [8] [µM] | TGI [9] [µM] | TGI [10] [µM] | GI50 [1] [µM] | GI50 [2] [µM] | GI50 [3] [µM] | GI50 [4] [µM] | GI50 [5] [µM] | GI50 [6] [µM] | GI50 [7] [µM] | GI50 [8] [µM] | GI50 [9] [µM] | GI50 [10] [µM] |
| --- | --- | --- | --- | --- | --- | --- | --- | --- | --- | --- | --- | --- | --- | --- | --- | --- | --- | --- | --- | --- |
| CN(C)CCCSc1nc2ccccc2[nH]1 | > 100 | > 100 | > 100 | > 100 | > 100 | > 100 | > 100 | > 100 | > 100 | > 100 | – | – | – | – | – | – | – | – | – | – |
| C1=NCCN2CCN(CCN=Cc3ccc(cc3)OCc3cccc(n3)COc3ccc1cc3)CC2 | > 50 | > 50 | > 50 | > 50 | > 50 | > 50 | > 50 | > 50 | > 50 | > 50 | – | – | – | – | – | – | – | – | – | – |
| OC1(c2cccs2)c2cccc(Cl)c2C(O)(c2cccs2)c2c(Cl)cccc21 (configuration not stated) | > 100 | > 100 | > 100 | > 100 | > 100 | > 100 | > 100 | > 100 | > 100 | > 100 | – | – | – | – | – | – | – | – | – | – |
| CCOc1ccc(NC(=O)C(=O)CC(=O)c2sc(NNC(C)=O)nc2C)cc1 | > 100 | > 100 | > 100 | > 100 | > 100 | > 100 | > 100 | > 100 | > 100 | > 100 | – | – | – | – | – | – | – | – | – | – |
| C[C@]12C=CC(=O)C=C1CC[C@@H]1[C@@H]2CC[C@]2(C)OC(=O)CC[C@@H]12 | 499 | > 500 | > 500 | > 500 | > 500 | > 500 | > 500 | > 500 | > 500 | > 500 | – | – | – | – | – | – | – | – | – | – |
| CCCCCCCCCCCCCCCCCCOc1ccccc1CC(=O)OCC[N+]1(C)CCCCC1 | 4.25 | 9.62 | 4.94 | 5.43 | 27.7 | 3.1 | 10.1 | 6.33 | 38.2 | 4.93 | 1.8 | 2.93 | 2.05 | 2.34 | 4.65 | 1.61 | 2.83 | 2.51 | 18.2 | 2.07 |
| Cc1ccc(S(=O)(=O)n2cc(-c3cc(C(F)(F)F)ccn3)c3cc(Br)ccc32)cc1 | 31.1 | 67.7 | 37.5 | > 100 | > 100 | > 100 | > 100 | 62.6 | 35.1 | 88 | – | – | – | – | – | – | – | – | – | – |
| O=C(O)c1cc([N+](=O)[O-])cc2c(=O)c3cnccc3[nH]c12 | > 100 | > 100 | > 100 | > 100 | > 100 | > 100 | > 100 | > 100 | > 100 | > 100 | – | – | – | – | – | – | – | – | – | – |
| CCOc1cc(NC(C)=O)ccc1C(=O)NN1C(=O)C(Cl)C1c1ccccc1 (configuration not stated) | 32.3 | 37.1 | 28.4 | 33.6 | 45.4 | 31.2 | 23.9 | 36.4 | 31.7 | 36.5 | – | – | – | – | – | – | – | – | – | – |
| O=C([O-])C[n+]1ccccc1 | > 100 | > 100 | > 100 | > 100 | > 100 | > 100 | > 100 | > 100 | > 100 | > 100 | – | – | – | – | – | – | – | – | – | – |
| O=C(Nc1ccc(Cl)cc1)c1cc2cc(N=Nc3ccccc3Cl)ccc2oc1=O | 34.5 | 91.9 | > 100 | > 100 | 24.1 | 29.6 | 23.6 | 55.7 | 84 | 44.7 | – | – | – | – | – | – | – | – | – | – |
| CN1CCOC(c2ccc(Cl)cc2)O1 (configuration not stated) | > 100 | > 100 | > 100 | > 100 | > 100 | > 100 | > 100 | > 100 | > 100 | > 100 | – | – | – | – | – | – | – | – | – | – |
| CCOC(=O)c1cnc2oc3ccc(O)cc3c2c1C | > 100 | > 100 | > 100 | > 100 | > 100 | > 100 | > 100 | > 100 | > 100 | > 100 | – | – | – | – | – | – | – | – | – | – |
| NN(CC(=O)O)CC(=O)O | > 100 | > 100 | > 100 | > 100 | > 100 | > 100 | > 100 | > 100 | > 100 | > 100 | – | – | – | – | – | – | – | – | – | – |
| CN(CCCCCl)P(=O)(OCc1ccc([N+](=O)[O-])o1)OC[C@H]1O[C@@H](n2cc(F)c(=O)[nH]c2=O)C[C@@H]1O (some centres not stated) | 20.5 | 3.48 | > 55.3 | 45.5 | > 100 | > 100 | > 59.4 | > 61.3 | 34.1 | 9.07 | – | – | – | – | – | – | – | – | – | – |
| CCOC(=O)C1=C(C)OC2(O)C=CC(O)=C3C(=O)N(c4ccccc4)C(=O)C312 (configuration not stated) | > 100 | > 100 | 65.3 | > 100 | > 100 | 76.7 | > 100 | 49.7 | > 100 | > 100 | – | – | – | – | – | – | – | – | – | – |
| COc1cc2c(c(O)c1OC)-c1c(cc(OC)c(OC)c1OC)CC(C)C(C)C2 (configuration not stated) | > 100 | > 100 | > 100 | > 100 | > 100 | > 100 | > 100 | > 100 | > 100 | > 100 | – | – | – | – | – | – | – | – | – | – |
| Cn1c2ccccc2n2c(N=O)c(-c3ccccc3)nc12 | > 100 | > 100 | > 100 | 48.3 | > 100 | > 100 | > 100 | > 100 | > 100 | > 100 | – | – | – | – | – | – | – | – | – | – |
| C=C1c2ccccc2C(=O)c2c1c1c(C(=O)OC)c(O)ccc1n2Cc1ccccc1 | 2.8 | 1.99 | 1.52 | 2.34 | 1.2 | 0.823 | 1.55 | 1.07 | 1.35 | 0.939 | – | – | – | – | – | – | – | – | – | – |
| COCCOC(=O)c1c(C)n([O-])c2cc(Cl)c(Cl)cc2[n+]1=O | 79.2 | 84.2 | > 100 | 25.9 | 22.3 | 41.8 | 34.7 | 61.7 | 47.5 | 70 | – | – | – | – | – | – | – | – | – | – |
| CN1CCc2[nH]c3ccccc3c2C1 | > 100 | > 100 | > 100 | > 100 | > 100 | > 100 | > 100 | > 100 | > 100 | > 100 | – | – | – | – | – | – | – | – | – | – |
| COc1ccc2[nH]cc(CCNC(=O)[C@H](Cc3ccccc3)NC(=O)[C@@H](NCC(F)(F)F)C(C)C)c2c1 | 64.6 | 25.2 | 84.8 | 46.3 | 42.2 | 31.5 | > 100 | 31.8 | 33.3 | 49 | – | – | – | – | – | – | – | – | – | – |
| Nc1ncnc2nc[nH]c12 | > 250 | > 250 | > 146 | > 250 | > 250 | > 250 | > 250 | > 250 | > 250 | > 237 | – | – | 105 | 21.3 | – | – | – | – | – | – |
